Assay results reported in patent US6586460B1, “Heteroarotinoids containing urea or thiourea linker” (The Board of Regents for Oklahoma State University, priority 2001, dated 2003).

Experiments:
[1] = system: SW962 vulvar carcinoma cultures; test: Apoptosis assay, Annexin-V-Flous/propidium iodide flow cytometry; type: cell-based
Description: Optimal chemotherapeutic agents will selectively kill tumor cells by inducing a natural form of cell death which is called “apoptosis”. Toxic agents kill both normal and tumor cells via a nonspecific process known as “necrosis”. To differentiate between apoptosis and necrosis in heteroarotinoid-treated cultures, a flow cytometric assay was employed. Treated cultures were stained with Annexin-V-Flous and propidium iodide, and the intensities of the stains are quantitated with Flow Cytometry. The Annexin-V-Flous binds to phosphatidyl serine on the exterior of apoptosing cells. This assay is specific for apoptosing cells because phosphatidyl serine is normally located on the inner membrane of the cells, a situation whereby the serine derivative cannot be bound by Annexin. However, during apoptosis, phosphatidyl serine is translocated to the outer membrane. The Flous moiety emits a signal that can be detected and quantitated by Flow Cytometry. In contrast, propidium iodide is taken up by necrotic cells that have lost membrane integrity. In this study, t-RA was used as a control for the non-apoptotic retinoids, and 4-HPR was used as a control for the apoptotic retinoids.

retinoic acid receptors = test: CV-1 co-transfection assay; type: cell-based
[2] = system: OVCAR-3 cisplatin-resistant ovarian carcinoma cell line; test: Cisplatin chemosensitization (MTS assay); type: cell-based, human; details: 1 μM retinoid 3 days before and 3 days after one hour of cisplatin (40 μM or 1 μg/ml)
Protocol: The compounds of the present invention also find advantage over the standard retinoids, including retinoic acid and 4-HPR as chemosensitization agents. In another study, ovarian carcinoma cultures, including cisplatin-resistant cultures, were trypsinized and plated in microtiter plates at a concentration of 1000 cells per well. A series of natural and synthetic retinoids, including exemplar heteroarotinoids with the novel three atom linker, at a concentration of 5 μM were added to triplicate wells in the microtiter plates twenty-four hours later. The same volume of DMSO used to administer the compounds were added to the control cultures. After three days of treatment, a range of cisplatin concentrations were added to the wells. After one hours of exposure, the media and retinoid drugs were replenished. Cell survival was quantitated using the MTS assay (Promega). […] Thus, the present invention contemplates the process of sensitizing cells to cisplatin therapy and combined cisplatin and radiation therapy using the inventive heteroarotinoids.
In this regard, the cisplatin resistant OVCAR-3 cell line was pre-treated with a concentration of 1 μM of the indicated retinoids for 3 days, and then exposed to cisplatin at the concentration detected in tumors of treated patients (40 μM or 1 μg/ml). […] After one hour of cisplatin exposure, the cisplatin was removed and the cultures were grown in the presence of 1 μM of the indicated retinoids for an additional 3 days. The number of living cells present was then determined using the MTS (3-(4,5-dimethylthiazol-2-yl)-5-(3-carboxymethoxyphenyl)-2H-tetrazolium inner salt) assay (Promega). In the MTS assay, metabolically active cells reduce the MTS compound to an aqueous soluble formazan resulting in an absorbance that can be measured at 490 nm (Promega Technical Bulletin No.169). The optical density at 490 nm (OD490) of the MTS-treated cultures is then determined and used as a measure of the number of living cells in each well. The percent growth is determined by dividing the OD490 of the treated cultures by the OD490 of the untreated control cultures.

[3] = system: RARE reporter in the SW962 vulvar carcinoma cell line; test: RARE reporter transactivation through endogenous receptors; type: cell-based
Protocol: Both heteroarotinoids 11 and 13 resemble 4-HPR in that all are potent inducers of apoptosis. Since 4-HPR acts through a receptor-independent mechanism, agent 11 was evaluated for ability to transactivate a RARE reporter through endogenous receptors in the SW962 vulvar carcinoma cell line. […] Nelson, S. Subramanian, G. M. Weerasekare, J. B. Gale, M. K. Patterson, Jr., B. Wang, W. Wang, S. Lu, T. C. Rowland, P. DiSivestro, C. Lindamood, D. L. Hill, and K. D. Berlin]. No induction of the retinoid receptors was observed although 9-cis-RA casued a 4 to 10 fold induction of RARE-driven transcription in the same experiment with the SW962 cell line.

[4] = Monitoring of xenograph mice for signs of toxicity; type: in vivo; details: 10 mg/kg/day (MTD for t-RA)
Protocol: Then OVCAR-3 cells in log phase growth were harvested by trypsinization, resuspended in RPMI culture medium, and centrifuged at 3000 rpm for 10 min. The pellets were then resuspended in RPMI culture medium at a concentration of 7×10^6 cells/mL before implantation into mice. Animals were injected with 3.5×10^6 cells into right scapular region with a 24-gauge needle/1 mL tuberculin syringe (Becton Dickinson, Rutherford, N.J.). Twenty four hours after tumor implantation, animals were randomized into four treatment groups of 5 animals each. Retinoids were administered daily p.o. beginning 35 days after tumor implantation with a 20-gauge intragastric feeding tube (Popper & Sons, New Hyde Park, N.Y.), 5 days/week, at doses of 10 mg/kg/day in 0.1 mL of super refined sesame oil (Corda, Inc., Parisppany, N.J.). Tumors were measured with calipers weekly, and tumor volumes were calculated using the formula: volume=length×width×heigth. Animal weights and clinical signs of overall health status and cutaneous toxicities were recorded weekly.

SMILES	Percentage of induction of apoptosis in SW962 vulvar carcinoma cultures ([1]; Days 0)	Percentage of induction of apoptosis in SW962 vulvar carcinoma cultures ([1]; Days 1)	Percentage of induction of apoptosis in SW962 vulvar carcinoma cultures ([1]; Days 2)	Percentage of induction of apoptosis in SW962 vulvar carcinoma cultures ([1]; Days 3)	Percentage of induction of apoptosis in SW962 vulvar carcinoma cultures ([1]; Days 4)	Percentage of induction of apoptosis in SW962 vulvar carcinoma cultures ([1]; Days 7)	apoptosis in the SW962 vulvar cell, comparison in words ([1]; Table IV)	transactivation of each of the retinoic acid receptors (retinoic acid receptors)	chemosensitization to cisplatin (percent growth, FIG. 2) [2]	induction of RARE-driven transcription [3]	toxicity to the skin, bones, or liver [4]
CC1(C)CC(C)(C)c2cc(NC(=S)Nc3ccc([N+](=O)[O-])cc3)ccc2S1 [heteroarotinoid 11]	3%	6.11%	11.42%	39.06%	48.79%	47.5%	superior to the clinically used agent 4-HPR	No transactivation	effective	No induction	did not cause toxicity
CCOC(=O)c1ccc(NC(=O)Nc2ccc3c(c2)C(C)(C)CC(C)(C)S3)cc1 [heteroarotinoid 13]	–	–	–	–	–	–	–	–	effective	–	did not cause toxicity
